Laboratory results reported in US11753395B2 (Kinnate Biopharma Inc., priority 2021, dated 2023).

Legend:
MET = target: T1, MET (Homo sapiens, UniProt P08581); experiment: MET Mobility Shift Assay; conditions: biochemical assay IC50; 100 μM ATP, 60 minute kinase reaction
T1 construct: purchased Carna Biosciences 08-151
How it was run: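 IC50s come from inhibition of substrate-to-phosphopeptide conversion, read by electrophoretic mobility shift. Reaction: 100 μM ATP, 1.5 μM 5-FAM peptide, 0.625 nM MET, 10 mM MgCl2, 60 min, after a 30 min room-temperature enzyme pre-incubation, quenched with EDTA.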

Ba/F3-TPR-MET cells = target: T2, Ba/F3-TPR-MET cells (Homo sapiens, UniProt P08581); experiment: CellTiter-Glo Cell Viability Assay, Ba/F3-TPR-MET; type: cell-based; conditions: 72 hours
T2 construct: fused on or other part: P12270 (Nucleoprotein TPR)
How it was run: (§1)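 IC50 values come from curve-fitted luminescence. Viable-cell ATP was read by CellTiter-Glo 2.0 after a 72 h, 37 °C incubation of 3000 TPR-MET or D1228N-mutant Ba/F3 cells per well. Compounds were tested as a 9-point, 3-fold series with 0.1% DMSO final.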

MET D1228N = target: T3, MET D1228N (Homo sapiens, UniProt P08581, D1228N); experiment: MET D1228N Mobility Shift Assay; conditions: biochemical assay IC50; 100 μM ATP, 60 minute kinase reaction
T3 construct: purchased Signalchem M52-12IG
How it was run: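 Microfluidic electrophoresis quantified phosphorylated versus unphosphorylated 5-FAM-KKKKEEIYFFF peptide (1.5 μM) after a 60 min reaction with 100 μM ATP. MET D1228N (0.313 nM) in 50 mM HEPES, 10 mM MgCl2, 2 mM DTT was preincubated 30 min; IC50 fitted to conversion inhibition.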

[1] = target: T4, Ba/F3-TPR-MET-D1228N cells (Homo sapiens, UniProt P08581, D1228N, cells depend on it); experiment: CellTiter-Glo Cell Viability Assay, Ba/F3-TPR-MET-D1228N; type: cell-based; conditions: 72 hours
T4 construct: fused on or other part: P12270 (Nucleoprotein TPR)
How it was run: as §1

Compound	IC50 (MET)	IC50 (MET D1228N)	EC50 (Ba/F3-TPR-MET cells)	EC50 [1]
COc1ccncc1C(=O)Nc1cc(F)c(Oc2ccnc3ccc(O[C@@H](C)CO)cc23)c(F)c1 [Example 130, (S)-N-(3,5-difluoro-4-((6-((1-hydroxypropan-2-yl)oxy)quinolin-4-yl)oxy)phenyl) -4-methoxynicotinamide]	≤ 100 nM	≤ 100 nM	100 to 1000 nM	≤ 100 nM
COc1cc2nccc(Oc3c(F)cc(NC(=O)c4cnccc4OC)cc3F)c2cc1OC1(CO)CC1 [Example 132, N-(3,5-difluoro-4-((6-(1-(hydroxymethyl)cyclopropoxy)-7-methoxyquinolin-4-yl)oxy)phenyl)-4-methoxynicotinamide]	≤ 100 nM	≤ 100 nM	≤ 100 nM	≤ 100 nM
COc1cc2nccc(Oc3c(F)cc(NC(=O)c4cnccc4OC)c(F)c3F)c2cc1O[C@@H](C)CO [Example 133, (S)-4-methoxy-N-(2,3,5-trifluoro-4-((6-((1-hydroxypropan-2-yl)oxy)-7-methoxyquinolin-4-yl)oxy)phenyl)nicotinamide]	≤ 100 nM	≤ 100 nM	≤ 100 nM	≤ 100 nM
COc1cc2c(Oc3c(F)cc(NC(=O)c4ccccc4F)cc3F)ccnc2cc1OCCO [Example 134, N-(3,5-difluoro-4-((7-(2-hydroxyethoxy)-6-methoxyquinolin-4-yl)oxy)phenyl)-2-fluorobenzamide]	≤ 100 nM	≤ 100 nM	≤ 100 nM	≤ 100 nM
COCCOc1cc2nccc(Oc3c(F)cc(NC(=O)c4cnccc4OC)cc3F)c2nc1OC [Example 137, N-(3,5-difluoro-4-((6-methoxy-7-(2-methoxyethoxy)-1,5-naphthyridin-4-yl)oxy)phenyl)-4-methoxypyridine-3-carboxamide]	≤ 100 nM	≤ 100 nM	≤ 100 nM	≤ 100 nM
COCCOc1cnc2c(Oc3c(F)cc(NC(=O)c4cnccc4OC)cc3F)ccnc2c1 [Example 139, N-(3,5-difluoro-4-((7-(2-methoxyethoxy)-1,5-naphthyridin-4-yl)oxy)phenyl)-4-methoxypyridine-3-carboxamide]	≤ 100 nM	≤ 100 nM	≤ 100 nM	≤ 100 nM
COC[C@H](C)Oc1nc2c(Oc3c(F)cc(NC(=O)c4cnccc4OC)cc3F)ccnc2cc1OC [Example 146, (S)-N-(3,5-difluoro-4-((7-methoxy-6-((1-methoxypropan-2-yl)oxy)-1,5-naphthyridin-4-yl)oxy)phenyl)-4-methoxynicotinamide]	≤ 100 nM	≤ 100 nM	≤ 100 nM	≤ 100 nM
COc1cc2nccc(Oc3c(F)cc(NC(=O)c4nnccc4OC4CC4)cc3F)c2cc1OC [Example 149, 4-cyclopropoxy-N-(4-((6,7-dimethoxyquinolin-4-yl)oxy)-3,5-difluorophenyl)pyridazine-3-carboxamide]	≤ 100 nM	≤ 100 nM	100 to 1000 nM	≤ 100 nM
(R)-N-(4-((7-(2-aminopropoxy)quinolin-4-yl)oxy)-3,5-difluorophenyl)-4-cyclopropoxypyridine-3-carboxamide [Example 13]	≤ 100 nM	≤ 100 nM	100 to 1000 nM	≤ 100 nM

Continued, in another order:

IC50 (MET)	IC50 (MET D1228N)	Compound	EC50 (Ba/F3-TPR-MET cells)	EC50 [1]
≤ 100 nM	≤ 100 nM	COc1cc2nccc(Oc3c(F)cc(NC(=O)c4cnccc4OC)cc3F)c2cc1O[C@H](C)CO [Example 131, (R)-N-(3,5-difluoro-4-{[6-((1-hydroxypropan-2-yl)oxy)-7-methoxyquinolin-4-yl]oxy}phenyl)-4-methoxypyridine-3-carboxamide]	≤ 100 nM	≤ 100 nM
≤ 100 nM	≤ 100 nM	COc1cc2c(Oc3c(F)cc(NC(=O)c4cnccc4OCC(F)F)cc3F)ccnc2cc1OCCO [Example 135, N-(3,5-difluoro-4-((7-(2-hydroxyethoxy)-6-methoxyquinolin-4-yl)oxy)phenyl)-4-(2,2-difluoroethoxy)pyridine-3-carboxamide]	≤ 100 nM	≤ 100 nM
≤ 100 nM	≤ 100 nM	COCCOc1cc2nccc(Oc3c(F)cc(NC(=O)c4cnccc4OC4CC4)cc3F)c2nc1OC [Example 136, 4-cyclopropoxy-N-(3,5-difluoro-4-{[6-methoxy-7-(2-methoxyethoxy)-1,5-naphthyridin-4-yl]oxy}phenyl)pyridine-3-carboxamide]	≤ 100 nM	≤ 100 nM
≤ 100 nM	≤ 100 nM	COc1ccncc1C(=O)Nc1cc(F)c(Oc2ccnc3cc(OCCO)c(OC)nc23)c(F)c1 [Example 138, N-(3,5-difluoro-4-((7-(2-hydroxyethoxy)-6-methoxy-1,5-naphthyridin-4-yl)oxy)phenyl)-4-methoxypyridine-3-carboxamide]	≤ 100 nM	≤ 100 nM
≤ 100 nM	≤ 100 nM	COCCOc1cnc2c(Oc3c(F)cc(NC(=O)c4ccccc4F)cc3F)ccnc2c1 [Example 140, N-(3,5-difluoro-4-((7-(2-methoxyethoxy)-1,5-naphthyridin-4-yl)oxy)phenyl)-2-fluorobenzamide]	≤ 100 nM	≤ 100 nM
≤ 100 nM	≤ 100 nM	COc1cc2c(Oc3c(F)cc(NC(=O)c4c(OCC(F)F)ccnc4F)cc3F)ccnc2cc1OCCO [Example 141, N-(3,5-difluoro-4-((7-(2-hydroxyethoxy)-6-methoxyquinolin-4-yl)oxy)phenyl)-4-(2,2-difluoroethoxy)-2-fluoropyridine-3-carboxamide]	≤ 100 nM	≤ 100 nM
≤ 100 nM	≤ 100 nM	COc1cc2nccc(Oc3c(F)cc(NC(=O)c4c(OCC(F)F)ccnc4F)cc3F)c2cc1OCCO [Example 142, N-(3,5-difluoro-4-((6-(2-hydroxyethoxy)-7-methoxyquinolin-4-yl)oxy)phenyl)-4-(2,2-difluoroethoxy)-2-fluoropyridine-3-carboxamide]	≤ 100 nM	≤ 100 nM
≤ 100 nM	≤ 100 nM	COc1cc2nccc(Oc3c(F)cc(NC(=O)c4cnccc4OCC(F)F)cc3F)c2cc1OCCO [Example 143, N-(3,5-difluoro-4-((6-(2-hydroxyethoxy)-7-methoxyquinolin-4-yl)oxy)phenyl)-4-(2,2-difluoroethoxy)pyridine-3-carboxamide]	≤ 100 nM	≤ 100 nM
≤ 100 nM	≤ 100 nM	COc1cc2nccc(Oc3c(F)cc(NC(=O)c4c(OC5CC5)ccnc4F)cc3F)c2nc1OC [Example 144, 4-cyclopropoxy-N-(4-((6,7-dimethoxy-1,5-naphthyridin-4-yl)oxy)-3,5-difluorophenyl)-2-fluoropyridine-3-carboxamide]	≤ 100 nM	≤ 100 nM
≤ 100 nM	≤ 100 nM	COc1ccncc1C(=O)Nc1cc(F)c(Oc2ccnc3cc(OC)c(O[C@@H](C)CO)nc23)c(F)c1 [Example 145, (S)-N-(3,5-difluoro-4-((6-((1-hydroxypropan-2-yl)oxy)-7-methoxy-1,5-naphthyridin-4-yl)oxy)phenyl)-4-methoxynicotinamide]	≤ 100 nM	≤ 100 nM
≤ 100 nM	≤ 100 nM	COc1ccncc1C(=O)Nc1cc(F)c(Oc2ccnc3cc(OC)c(OC4(CO)CC4)nc23)c(F)c1 [Example 147, N-(3,5-difluoro-4-((6-(1-(hydroxymethyl)cyclopropoxy)-7-methoxy-1,5-naphthyridin-4-yl)oxy)phenyl)-4-methoxynicotinamide]	≤ 100 nM	≤ 100 nM
≤ 100 nM	≤ 100 nM	COc1cc2c(Oc3c(F)cc(NC(=O)c4nnccc4OC4CC4)cc3F)ccnc2cc1OCCO [Example 148, 4-cyclopropoxy-N-(3,5-difluoro-4-((7-(2-hydroxyethoxy)-6-methoxyquinolin-4-yl)oxy)phenyl)pyridazine-3-carboxamide]	≤ 100 nM	≤ 100 nM
≤ 100 nM	≤ 100 nM	(S)-N-(4-((7-(2-aminopropoxy)quinolin-4-yl)oxy)-3,5-difluorophenyl)-4-cyclopropoxypyridine-3-carboxamide [Example 12]	≤ 100 nM	≤ 100 nM
